Experimental data from article PMC8005217, “Unravelling Regioselectivity of Leuconostoc citreum ABK-1 Alternansucrase by Acceptor Site Engineering” (International Journal of Molecular Sciences, 2021).

Key:
Test in all cases: DNS reducing sugar assay (total activity)
Assay type in all cases: biochemical
Details in all cases: 0–368 mM sucrose, 50 mM sodium citrate pH 4.0, 40 °C, read-out: Km or k
[1] = molecular target: T1, LcALT (truncated Leuconostoc citreum ABK-1 alternansucrase, pETΔ7SH, WT) (Leuconostoc citreum, UniProt A0A2H4A2Q1, W554A, form not given)
T1 construct: gene asr; pET19b via NcoI/XhoI, purified recombinant; exact borders and tags only in cited earlier work
Text: (§1) DNS reducing sugar assay (total activity) on LcALT (truncated Leuconostoc citreum ABK-1 alternansucrase, pETΔ7SH, WT)

[2] = molecular target: T2, LcALT (truncated Leuconostoc citreum ABK-1 alternansucrase, pETΔ7SH, WT) (Leuconostoc citreum, UniProt A0A2H4A2Q1, W554F, form not given)
T2 construct: gene asr; pET19b via NcoI/XhoI, purified recombinant; exact borders and tags only in cited earlier work
Text: as §1

[3] = molecular target: T3, LcALT (truncated Leuconostoc citreum ABK-1 alternansucrase, pETΔ7SH, WT) (Leuconostoc citreum, UniProt A0A2H4A2Q1, W554I, form not given)
T3 construct: gene asr; pET19b via NcoI/XhoI, purified recombinant; exact borders and tags only in cited earlier work
Text: as §1

[4] = molecular target: T4, LcALT (truncated Leuconostoc citreum ABK-1 alternansucrase, pETΔ7SH, WT) (Leuconostoc citreum, UniProt A0A2H4A2Q1, W554L, form not given)
T4 construct: gene asr; pET19b via NcoI/XhoI, purified recombinant; exact borders and tags only in cited earlier work
Text: as §1

[5] = molecular target: T5, LcALT (truncated Leuconostoc citreum ABK-1 alternansucrase, pETΔ7SH, WT) (Leuconostoc citreum, UniProt A0A2H4A2Q1, W554S, form not given)
T5 construct: gene asr; pET19b via NcoI/XhoI, purified recombinant; exact borders and tags only in cited earlier work
Text: as §1

[6] = molecular target: T6, LcALT (truncated Leuconostoc citreum ABK-1 alternansucrase, pETΔ7SH, WT) (Leuconostoc citreum, UniProt A0A2H4A2Q1, W554Y, form not given)
T6 construct: gene asr; pET19b via NcoI/XhoI, purified recombinant; exact borders and tags only in cited earlier work
Text: as §1

T3 sequence (A0A2H4A2Q1 entry or part of it W554I, form open): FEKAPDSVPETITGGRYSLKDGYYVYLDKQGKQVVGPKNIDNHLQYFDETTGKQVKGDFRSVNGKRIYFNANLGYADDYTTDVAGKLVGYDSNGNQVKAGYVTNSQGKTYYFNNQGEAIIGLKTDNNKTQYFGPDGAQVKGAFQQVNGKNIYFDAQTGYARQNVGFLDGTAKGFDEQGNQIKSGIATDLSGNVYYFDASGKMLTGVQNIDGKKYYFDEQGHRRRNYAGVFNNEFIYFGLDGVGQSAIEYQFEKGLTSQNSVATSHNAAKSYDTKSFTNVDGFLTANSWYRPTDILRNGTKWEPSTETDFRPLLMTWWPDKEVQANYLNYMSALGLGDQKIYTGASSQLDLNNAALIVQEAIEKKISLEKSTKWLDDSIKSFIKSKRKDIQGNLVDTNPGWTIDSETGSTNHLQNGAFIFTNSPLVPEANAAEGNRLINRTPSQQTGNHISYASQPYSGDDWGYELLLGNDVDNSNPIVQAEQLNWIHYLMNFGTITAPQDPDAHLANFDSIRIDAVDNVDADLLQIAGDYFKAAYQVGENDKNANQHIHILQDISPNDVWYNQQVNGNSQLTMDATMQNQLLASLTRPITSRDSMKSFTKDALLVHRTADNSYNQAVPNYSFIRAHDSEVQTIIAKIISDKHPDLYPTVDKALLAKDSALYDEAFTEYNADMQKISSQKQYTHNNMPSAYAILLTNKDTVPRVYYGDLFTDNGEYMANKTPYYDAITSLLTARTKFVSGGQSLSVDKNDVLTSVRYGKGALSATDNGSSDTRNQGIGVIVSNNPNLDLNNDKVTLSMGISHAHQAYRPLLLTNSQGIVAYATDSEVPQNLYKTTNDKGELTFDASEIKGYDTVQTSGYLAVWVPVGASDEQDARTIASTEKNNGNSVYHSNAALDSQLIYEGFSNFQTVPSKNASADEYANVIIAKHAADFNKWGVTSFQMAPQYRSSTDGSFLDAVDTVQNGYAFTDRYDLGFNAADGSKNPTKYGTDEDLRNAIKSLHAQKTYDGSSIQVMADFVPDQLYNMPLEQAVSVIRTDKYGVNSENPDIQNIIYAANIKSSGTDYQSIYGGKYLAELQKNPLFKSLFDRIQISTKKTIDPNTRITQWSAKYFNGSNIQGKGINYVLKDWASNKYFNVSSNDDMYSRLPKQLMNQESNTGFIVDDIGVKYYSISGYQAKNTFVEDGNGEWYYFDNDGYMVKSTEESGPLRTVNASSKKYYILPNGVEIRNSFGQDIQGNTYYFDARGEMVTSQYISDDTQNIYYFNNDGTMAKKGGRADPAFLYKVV
T4 sequence (A0A2H4A2Q1 entry or part of it W554L, form open): as the sequence (A0A2H4A2Q1 entry or part of it W554I, form open) above, with I554L counted along it
T2 sequence (A0A2H4A2Q1 entry or part of it W554F, form open): as the sequence (A0A2H4A2Q1 entry or part of it W554I, form open) above, with I554F counted along it
T5 sequence (A0A2H4A2Q1 entry or part of it W554S, form open): as the sequence (A0A2H4A2Q1 entry or part of it W554I, form open) above, with I554S counted along it
T6 sequence (A0A2H4A2Q1 entry or part of it W554Y, form open): as the sequence (A0A2H4A2Q1 entry or part of it W554I, form open) above, with I554Y counted along it
T1 sequence (A0A2H4A2Q1 entry or part of it W554A, form open): as the sequence (A0A2H4A2Q1 entry or part of it W554I, form open) above, with I554A counted along it

- Km [1]: 43 ± 4.7 mM
- Km [2]: 16.6 ± 2.1 mM
- Km [3]: 53.1 ± 4.6 mM
- Km [4]: 46.4 ± 6 mM
- Km [5]: 63.6 ± 8.3 mM
- Km [6]: 14.2 ± 2 mM
SMILES: OC[C@H]1O[C@@](CO)(O[C@H]2O[C@H](CO)[C@@H](O)[C@H](O)[C@H]2O)[C@@H](O)[C@@H]1O [sucrose]
